# Test results published in patent US4288590A, “7 -[Dα-(4-Hydroxy-1,5-naphthyridine-3-carboxamido)-α-arylacetam ido]-3-(N,N-dimethyl-aminomethylpyridinium) methyl-3-cephem-4-carboxylates” (Bristol-Myers Company, priority 1980, dated 1981).
# Structures can show the parent of a compound that is named as a salt.
# Columns and labels:
# S. aureus BX-1633 A9606 = assay: In vivo efficacy, experimental infection in mice; settings: Staphylococcus aureus, BX1633A9606, in Mus musculus, im, 120 h, read-out: PD50 (median protective dose)
# Experimental: (§3) The mice were treated with test compound by im route immediately after the bacterial challenge.
# S. pyogenes A20201 = assay: In vivo efficacy, experimental infection in mice; settings: Streptococcus pyogenes, A20201, in Mus musculus, im, 120 h, read-out: PD50 (median protective dose)
# Experimental: as §3
# S. aureus Smith A9537 = assay: In vivo efficacy, experimental infection in mice; settings: Staphylococcus aureus, SMITHA9537, in Mus musculus, im, 120 h, read-out: PD50 (median protective dose)
# Experimental: as §3
# [1] = Additional mouse blood levels after intramuscular administration (Table 4); type: in vivo; settings: mice, im, read-out: Blood level
# Experimental: (§1) […] The blood samples were collected from the orbital sinuses into heparinized capillary tubes at 15, 30, 60 and 120 minutes after administration. The antibiotic concentration was determined by the paper disc-agar diffusion method using E. coli NIHJ or S. lutea PCI 1001 as the assay organism.
# E. coli Juhl A15119 = assay: In vivo efficacy, experimental infection in mice; settings: Escherichia coli, JUHLA15119, in Mus musculus, im, 120 h, read-out: PD50 (median protective dose)
# Experimental: as §3
# P. aeruginosa A21509 = assay: In vivo efficacy, experimental infection in mice; settings: Pseudomonas aeruginosa, A21509, in Mus musculus, im, 120 h, read-out: PD50 (median protective dose)
# Experimental: as §3
# P. aeruginosa A9843 = assay: In vivo efficacy, experimental infection in mice; settings: Pseudomonas aeruginosa, A9843, in Mus musculus, im, 120 h, read-out: PD50 (median protective dose)
# Experimental: as §3
# K. pneumoniae A9977 = assay: In vivo efficacy, experimental infection in mice; settings: Klebsiella pneumoniae, A9977, in Mus musculus, im, 120 h, read-out: PD50 (median protective dose)
# Experimental: as §3
# [2] = Mouse blood levels after intramuscular administration (Table 3); type: in vivo; settings: im, read-out: Blood level; for concentration at 0.25 h: 15'; for concentration at 0.5 h: 30'; for concentration at 1 h: 60'; for concentration at 2 h: 120'
# Experimental: as §1
# K. pneumoniae (Gn-Ia) = assay: In vitro activity, MIC of strain group (Table 2); type: cell-based; settings: Klebsiella pneumoniae, 10 strains, read-out: Geometric mean of MIC
# Experimental: (§2) Minimum inhibitory concentrations (MIC) of BB-S 651, BB-S 669 and BB-S 676 were determined by serial two-fold agar dilution method using Steers' apparatus on Mueller-Hinton agar plate against 15 test organisms for primary screening as shown in Table 1.
# P. stuartii = assay: In vitro activity, MIC of strain group (Table 2); type: cell-based; settings: Providencia stuartii; Gn-II P. stuartii, 5 strains; read-out: Geometric mean of MIC
# Experimental: as §2
# Indole(+) Proteus sp. = assay: In vitro activity, MIC of strain group (Table 2); type: cell-based; settings: Gn-II Indole(+) Proteus sp., 8 strains; read-out: Geometric mean of MIC
# Experimental: as §2
# P. aeruginosa = assay: In vitro activity, MIC of strain group (Table 2); type: cell-based; settings: Pseudomonas aeruginosa; Gn-III P. aeruginosa, 32 strains; read-out: Geometric mean of MIC
# Experimental: as §2
# S. pneumoniae = assay: In vitro activity, MIC of strain group (Table 2); type: cell-based; settings: Streptococcus pneumoniae; Gp-II S. pneumoniae, 9 strains; read-out: Geometric mean of MIC
# Experimental: as §2
# S. marcescens = assay: In vitro activity, MIC of strain group (Table 2); type: cell-based; settings: Serratia marcescens; Gn-II S. marcescens, 10 strains; read-out: Geometric mean of MIC
# Experimental: as §2
# H. influenzae = assay: In vitro activity, MIC of strain group (Table 2); type: cell-based; settings: Haemophilus influenzae; Gn-IV H. influenzae, 4 strains; read-out: Geometric mean of MIC
# Experimental: as §2
# P. mirabilis (Gn-Ia) = assay: In vitro activity, MIC of strain group (Table 2); type: cell-based; settings: Proteus mirabilis, 6 strains, read-out: Geometric mean of MIC
# Experimental: as §2
# K. pneumoniae (Gn-Ib) = assay: In vitro activity, MIC of strain group (Table 2); type: cell-based; settings: Klebsiella pneumoniae, 5 strains, read-out: Geometric mean of MIC
# Experimental: as §2
# E. coli (Gn-Ib) = assay: In vitro activity, MIC of strain group (Table 2); type: cell-based; settings: Escherichia coli, 13 strains, read-out: Geometric mean of MIC
# Experimental: as §2
# P. cepacia = assay: In vitro activity, MIC of strain group (Table 2); type: cell-based; settings: Burkholderia cepacia; Gn-III P. cepacia, 4 strains; read-out: Geometric mean of MIC
# Experimental: as §2
# P. mirabilis (Gn-Ib) = assay: In vitro activity, MIC of strain group (Table 2); type: cell-based; settings: Proteus mirabilis, 2 strains, read-out: Geometric mean of MIC
# Experimental: as §2
# S. pyogenes = assay: In vitro activity, MIC of strain group (Table 2); type: cell-based; settings: Streptococcus pyogenes; Gp-II S. pyogenes, 10 strains; read-out: Geometric mean of MIC
# Experimental: as §2
# P. maltophilia = assay: In vitro activity, MIC of strain group (Table 2); type: cell-based; settings: Stenotrophomonas maltophilia; Gn-III P. maltophilia, 13 strains; read-out: Geometric mean of MIC
# Experimental: as §2
# P. morganii A15153 = assay: In vivo efficacy, experimental infection in mice; settings: Morganella morganii, A15153, in Mus musculus, im, 120 h, read-out: PD50 (median protective dose)
# Experimental: as §3
# P. mirabilis A9900 = assay: In vivo efficacy, experimental infection in mice; settings: Proteus mirabilis, A9900, in Mus musculus, im, 120 h, read-out: PD50 (median protective dose)
# Experimental: as §3
compound,measurement,setting,value
"CN(C)Cc1ccc[n+](CC2=C(C(=O)[O-])N3C(=O)C(NC(=O)[C@H](NC(=O)c4cnc5cccnc5c4O)c4ccc(O)cc4)C3SC2)c1 (stereo partly drawn) [BB-S 651, 7-[D-α-(4-Hydroxy-1,5-naphthyridine-3-carboxamido)-α-(4-hydroxyphenyl)acetamido]-3-(3-N,N-dimethylaminomethylpyridinium)methyl-3-cephem-4-carboxylate Hydrochloride]",ED50,S. aureus BX-1633 A9606,6.3 mg/kg
same,ED50,S. pyogenes A20201,1.1 mg/kg
same,ED50,S. aureus Smith A9537,1.1 mg/kg
same,concentration at 0.5 h,"[1]; 10 mg/kg, dose 10, 1/2 hour",3300 ng/mL
same,concentration at 0.25 h,"[1]; 10 mg/kg, dose 10, 1/4 hour",4300 ng/mL
same,concentration at 1 h,"[1]; 10 mg/kg, dose 10, 1 hour",2500 ng/mL
same,concentration at 2 h,"[1]; 10 mg/kg, dose 10, 2 hour",< 800 ng/mL
same,concentration at 0.5 h,"[1]; 20 mg/kg, dose 20, 1/2 hour",7400 ng/mL
same,concentration at 0.25 h,"[1]; 20 mg/kg, dose 20, 1/4 hour",10000 ng/mL
same,concentration at 1 h,"[1]; 20 mg/kg, dose 20, 1 hour",5800 ng/mL
same,concentration at 2 h,"[1]; 20 mg/kg, dose 20, 2 hour",< 800 ng/mL
same,concentration at 0.5 h,"[1]; 40 mg/kg, 1/2 hour",14000 ng/mL
same,concentration at 0.25 h,"[1]; 40 mg/kg, 1/4 hour",20000 ng/mL
same,concentration at 1 h,"[1]; 40 mg/kg, 1 hour",10000 ng/mL
same,concentration at 2 h,"[1]; 40 mg/kg, 2 hour",3000 ng/mL
same,ED50,E. coli Juhl A15119,1.9 mg/kg
same,ED50,P. aeruginosa A21509,3.2 mg/kg
same,ED50,P. aeruginosa A9843,1.9 mg/kg
same,ED50,K. pneumoniae A9977,7.4 mg/kg
same,concentration at 0.25 h,[2]; 10 mg/kg,5000 ng/mL
same,concentration at 0.5 h,[2]; 10 mg/kg,3000 ng/mL
same,concentration at 1 h,[2]; 10 mg/kg,< 400 ng/mL
same,concentration at 2 h,[2]; 10 mg/kg,< 400 ng/mL
same,concentration at 0.25 h,[2]; 20 mg/kg,11000 ng/mL
same,concentration at 0.5 h,[2]; 20 mg/kg,9000 ng/mL
same,concentration at 1 h,[2]; 20 mg/kg,5000 ng/mL
same,concentration at 2 h,[2]; 20 mg/kg,< 400 ng/mL
same,concentration at 0.25 h,[2]; 40 mg/kg,25000 ng/mL
same,concentration at 0.5 h,[2]; 40 mg/kg,18000 ng/mL
same,concentration at 1 h,[2]; 40 mg/kg,11000 ng/mL
same,concentration at 2 h,[2]; 40 mg/kg,3000 ng/mL
same,MIC,K. pneumoniae (Gn-Ia),18 µg/mL
same,MIC,P. stuartii,1.6 µg/mL
same,MIC,Indole(+) Proteus sp.,> 100 µg/mL
same,MIC,P. aeruginosa,1.7 µg/mL
same,MIC,S. pneumoniae,0.8 µg/mL
same,MIC,S. marcescens,> 100 µg/mL
same,MIC,H. influenzae,0.8 µg/mL
same,MIC,P. mirabilis (Gn-Ia),> 100 µg/mL
same,MIC,K. pneumoniae (Gn-Ib),> 100 µg/mL
same,MIC,E. coli (Gn-Ib),29 µg/mL
same,MIC,P. cepacia,59 µg/mL
same,MIC,P. mirabilis (Gn-Ib),> 100 µg/mL
same,MIC,S. pyogenes,0.4 µg/mL
same,MIC,P. maltophilia,14 µg/mL
same,ED50,P. morganii A15153,> 100 mg/kg
same,ED50,P. mirabilis A9900,> 25 mg/kg
"CCN1CCN(C(=O)N[C@@H](C(=O)N[C@@H]2C(=O)N3C(C(=O)O)=C(CSc4nnnn4C)CS[C@H]23)c2ccc(O)cc2)C(=O)C1=O [Cefoperazone, reference compound]",ED50,S. aureus BX-1633 A9606,1.6 mg/kg
same,ED50,S. pyogenes A20201,2.5 mg/kg
same,ED50,S. aureus Smith A9537,2.4 mg/kg
same,concentration at 0.5 h,"[1]; 10 mg/kg, dose 10, 1/2 hour",3500 ng/mL
same,concentration at 0.25 h,"[1]; 10 mg/kg, dose 10, 1/4 hour",5000 ng/mL
same,concentration at 1 h,"[1]; 10 mg/kg, dose 10, 1 hour",1200 ng/mL
same,concentration at 2 h,"[1]; 10 mg/kg, dose 10, 2 hour",< 800 ng/mL
same,concentration at 0.5 h,"[1]; 20 mg/kg, dose 20, 1/2 hour",6300 ng/mL
same,concentration at 0.25 h,"[1]; 20 mg/kg, dose 20, 1/4 hour",10500 ng/mL
same,concentration at 1 h,"[1]; 20 mg/kg, dose 20, 1 hour",2500 ng/mL
same,concentration at 2 h,"[1]; 20 mg/kg, dose 20, 2 hour",< 800 ng/mL
same,concentration at 0.5 h,"[1]; 40 mg/kg, 1/2 hour",12000 ng/mL
same,concentration at 0.25 h,"[1]; 40 mg/kg, 1/4 hour",18000 ng/mL
same,concentration at 1 h,"[1]; 40 mg/kg, 1 hour",5400 ng/mL
same,concentration at 2 h,"[1]; 40 mg/kg, 2 hour",1200 ng/mL
same,ED50,E. coli Juhl A15119,1.1 mg/kg
same,ED50,P. aeruginosa A21509,30 mg/kg
same,ED50,P. aeruginosa A9843,20 mg/kg
same,ED50,K. pneumoniae A9977,0.6 mg/kg
same,concentration at 0.25 h,[2]; 10 mg/kg,3500 ng/mL
same,concentration at 0.5 h,[2]; 10 mg/kg,1800 ng/mL
same,concentration at 1 h,[2]; 10 mg/kg,< 400 ng/mL
same,concentration at 2 h,[2]; 10 mg/kg,< 400 ng/mL
same,concentration at 0.25 h,[2]; 20 mg/kg,9000 ng/mL
same,concentration at 0.5 h,[2]; 20 mg/kg,5500 ng/mL
same,concentration at 1 h,[2]; 20 mg/kg,1300 ng/mL
same,concentration at 2 h,[2]; 20 mg/kg,< 400 ng/mL
same,concentration at 0.25 h,[2]; 40 mg/kg,19000 ng/mL
same,concentration at 0.5 h,[2]; 40 mg/kg,14000 ng/mL
same,concentration at 1 h,[2]; 40 mg/kg,2500 ng/mL
same,concentration at 2 h,[2]; 40 mg/kg,< 400 ng/mL
same,MIC,K. pneumoniae (Gn-Ia),0.9 µg/mL
same,MIC,P. stuartii,0.8 µg/mL
same,MIC,Indole(+) Proteus sp.,3.5 µg/mL
same,MIC,P. aeruginosa,11 µg/mL
same,MIC,S. pneumoniae,0.8 µg/mL
same,MIC,S. marcescens,47 µg/mL
same,MIC,H. influenzae,0.8 µg/mL
same,MIC,P. mirabilis (Gn-Ia),0.8 µg/mL
same,MIC,K. pneumoniae (Gn-Ib),100 µg/mL
same,MIC,E. coli (Gn-Ib),3.7 µg/mL
same,MIC,P. cepacia,> 100 µg/mL
same,MIC,P. mirabilis (Gn-Ib),12.5 µg/mL
same,MIC,S. pyogenes,0.2 µg/mL
same,MIC,P. maltophilia,47 µg/mL
same,ED50,P. morganii A15153,6.3 mg/kg
same,ED50,P. mirabilis A9900,6.3 mg/kg
